One assay relates to CD8+ T cells. In words: In vitro immunogenicity: T-cell priming with aAPCs loaded with HLA-A*24 peptide/MHC and anti-CD28, multimer staining. The format is cell-based, human. As to conditions: HLA-A*24 peptides; for in vitro immunogenicity, wells: positive wells after priming. As for the experimental part: CD8+ T cells were primed using artificial APCs coated with anti-CD28 mAb and HLA-A*24 in complex with SEQ ID NO: 99 peptide (FIG. 5A, left panel), SEQ ID NO: 119 peptide (FIG. 5B, left panel), SEQ ID NO: 142 peptide (FIG. 5C, left panel) and SEQ ID NO: 174 peptide FIG. 5 (D, left panel), respectively. After three cycles of stimulation, the detection of peptide-reactive cells was performed by 2D multimer staining with A*24/SEQ ID NO: 99 (FIG. 5A), A*24/SEQ ID NO: 119 (FIG. 5B), A*24/SEQ ID NO: 142 (FIG. 5C) or A*24/SEQ ID NO: 174 (FIG. 5D). Right panels (FIGS. 5A,5B,5C and 5D) show control staining of cells stimulated with irrelevant A*24/peptide complexes. Viable singlet cells were gated for CD8+ lymphocytes. Boolean gates helped excluding false-positive events detected with multimers specific for different peptides. Frequencies of specific multimer+ cells among CD8+ lymphocytes are indicated.
Generation of pMHC/anti-CD28 coated beads, T-cell stimulations and readout was performed in a highly defined in vitro system using four different pMHC molecules per stimulation condition and 8 different pMHC molecules per readout condition.
The purified co-stimulatory mouse IgG2a anti human CD28 Ab 9.3 (Jung et al., 1987) was chemically biotinylated using Sulfo-N-hydroxysuccinimidobiotin as recommended by the manufacturer (Perbio, Bonn, Germany). Beads used were 5.6 μm diameter streptavidin coated polystyrene particles (Bangs Laboratories, Illinois, USA).
800.000 beads/200 μl were coated in 96-well plates in the presence of 4×12.5 ng different biotin-pMHC, washed and 600 ng biotin anti-CD28 were added subsequently in a volume of 200 μl. Stimulations were initiated in 96-well plates by co-incubating 1×10^6 CD8+ T cells with 2×10^5 washed coated beads in 200 μl TCM supplemented with 5 ng/ml IL-12 (PromoCell) for 3 days at 37° C. Half of the medium was then exchanged by fresh TCM supplemented with 80 U/ml IL-2 and incubating was continued for 4 days at 37° C. This stimulation cycle was performed for a total of three times. For the pMHC multimer readout using 8 different pMHC molecules per condition, a two-dimensional combinatorial coding approach was used as previously described (Andersen et al., 2012) with minor modifications encompassing coupling to 5 different fluorochromes. Finally, multimeric analyses were performed by staining the cells with Live/dead near IR dye (Invitrogen, Karlsruhe, Germany), CD8-FITC antibody clone SK1 (BD, Heidelberg, Germany) and fluorescent pMHC multimers. For analysis, a BD LSRII SORP cytometer equipped with appropriate lasers and filters was used. Peptide specific cells were calculated as percentage of total CD8+ cells. Evaluation of multimeric analysis was done using the FlowJo software (Tree Star, Oregon, USA). In vitro priming of specific multimer+CD8+ lymphocytes was detected by comparing to negative control stimulations.

The test system of the next assay is HLA-A*24. In words: MHC binding assay, UV-ligand exchange with beta2m ELISA (exchange yield), HLA-A*24. Also noted: species or system human. As to conditions: binding to HLA-A*24, UV-ligand exchange. The essentials: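 Peptide–MHC complexes formed by UV-ligand exchange: a UV-cleavable peptide is replaced by the test peptide, and only binders keep the complex stable. Exchange yield read by streptavidin-capture ELISA on reactions diluted 100-fold, detected with HRP anti-β2m (2 ug/ml, 1 h, 37° C) and TMB at 450 nm.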
A general note: ELISA stands for enzyme-linked immunosorbent assay.

A further assay concerns the target HLA-A*02:01 (Homo sapiens, UniProt P04439, D140Y/D185E/D98H/E176V/E277Q/G131W/G231S/I119V/I121R/I166T/I218V/L300P/L318F/N151K/N90K/P208A/P217A/Q86G/Q94H/R138H/R169H/T345S). In words: MHC binding assay, UV-ligand exchange with beta2m ELISA (exchange yield), HLA-A*02. As to conditions: binding to HLA-A*02 ranged by peptide exchange yield. An excerpt: Candidate peptides for T cell based therapies according to the present invention were further tested for their MHC binding capacity (affinity). The individual peptide-MHC complexes were produced by UV-ligand exchange, where a UV-sensitive peptide is cleaved upon UV-irradiation, and exchanged with the peptide of interest as analyzed. Only peptide candidates that can effectively bind and stabilize the peptide-receptive MHC molecules prevent dissociation of the MHC complexes. To determine the yield of the exchange reaction, an ELISA was performed based on the detection of the light chain (β2m) of stabilized MHC complexes. The assay was performed as generally described in Rodenko et al. (Rodenko et al., 2006).
96 well MAXISorp plates (NUNC) were coated over night with 2 ug/ml streptavidin in PBS at room temperature, washed 4× and blocked for 1 h at 37° C. in 2% BSA containing blocking buffer. […] Peptide-MHC monomers of the UV-exchange reaction were diluted 100 fold in blocking buffer. Samples were incubated for 1 h at 37° C., washed four times, incubated with 2 ug/ml HRP conjugated anti-β2m for 1h at 37° C., washed again and detected with TMB solution that is stopped with […]. Absorption was measured at 450 nm. Candidate peptides that show a high exchange yield (preferably higher than 50%, most preferred higher than 75%) are generally preferred for a generation and production of antibodies or fragments thereof, and/or T cell receptors or fragments thereof, as they show sufficient avidity to the MHC molecules and prevent dissociation of the MHC complexes.

As for “96 (YYTQYSQTI; listed as Homo sapiens) [compound 96]”, the “in vitro immunogenicity, Wells positive [%]” value (from here on “in vitro immunogenicity … [%]”) in the assay with CD8+ T cells is recorded as “+ (<20% = +)”. The “Peptide exchange (MHC class I binding score, peptide exchange yield)” value in the assay on HLA-A*24 was “++++ (>=75% = ++++)”. Turning to “98 (VFPRLHNVLF; listed as Homo sapiens) [compound 98]”, the “in vitro immunogenicity … [%]” value in the assay on CD8+ T cells is on record as “+ (<20% = +)”. Besides, the “Peptide exchange (MHC class I binding score, peptide exchange yield)” value in the assay on HLA-A*24 was “+++ (50%-75% = +++)”. As to “99 (QYILAVPVL; listed as Homo sapiens) [compound 99]”, the “in vitro immunogenicity … [%]” value in the assay with CD8+ T cells is listed as “+++ (50%-69% = +++)”. Also, in the assay on HLA-A*24, the “Peptide exchange (MHC class I binding score, peptide exchange yield)” value was “++++ (>=75% = ++++)”. Turning to “102 (VYPFENFEF; listed as Homo sapiens) [compound 102]”, in the assay on CD8+ T cells, the “in vitro immunogenicity … [%]” value was “+++ (50%-69% = +++)”. In addition, in the assay on HLA-A*24, the “Peptide exchange (MHC class I binding score, peptide exchange yield)” value is “+++ (50%-75% = +++)”.

In the case of “103 (NYIPVKNGKQF; listed as Homo sapiens) [compound 103]”, the “in vitro immunogenicity … [%]” value in the assay with CD8+ T cells is listed as “+ (<20% = +)”. The “Peptide exchange (MHC class I binding score, peptide exchange yield)” value with HLA-A*24 is given as “+++ (50%-75% = +++)”. “104 (SYLTWHQQI; listed as Homo sapiens) [compound 104]”: the “in vitro immunogenicity … [%]” value in the assay on CD8+ T cells is “+ (<20% = +)”. The “Peptide exchange (MHC class I binding score, peptide exchange yield)” value in the assay with HLA-A*24 is listed as “++++ (>=75% = ++++)”. For “105 (IYNETITDLL; listed as Homo sapiens) [compound 105]”, in the assay on CD8+ T cells, the “in vitro immunogenicity … [%]” value is given as “+ (<20% = +)”. Moreover, the “Peptide exchange (MHC class I binding score, peptide exchange yield)” value in the assay with HLA-A*24 is “+++ (50%-75% = +++)”.

Turning to “106 (IYNETVRDLL; listed as Homo sapiens) [compound 106]”, the “in vitro immunogenicity … [%]” value with CD8+ T cells is given as “+ (<20% = +)”. Further, the “Peptide exchange (MHC class I binding score, peptide exchange yield)” value in the assay with HLA-A*24 is “+++ (50%-75% = +++)”. For “107 (KYFPYLVVI; listed as Homo sapiens) [compound 107]”, in the assay on CD8+ T cells, the “in vitro immunogenicity … [%]” value was “++ (20%-49% = ++)”. In addition, in the assay on HLA-A*24, the “Peptide exchange (MHC class I binding score, peptide exchange yield)” value was “+++ (50%-75% = +++)”. “109 (LFITGGQFF; listed as Homo sapiens) [compound 109]”: the “in vitro immunogenicity … [%]” value in the assay on CD8+ T cells is “++ (20%-49% = ++)”. For the same substance, the “Peptide exchange (MHC class I binding score, peptide exchange yield)” value in the assay on HLA-A*24 is on record as “++++ (>=75% = ++++)”. For “110 (SYPKIIEEF; listed as Homo sapiens) [compound 110]”, in the assay on CD8+ T cells, the “in vitro immunogenicity … [%]” value is recorded as “++ (20%-49% = ++)”. In addition, the “Peptide exchange (MHC class I binding score, peptide exchange yield)” value in the assay with HLA-A*24 was “+++ (50%-75% = +++)”.

As for “111 (VYVQILQKL; listed as Homo sapiens) [compound 111]”, the “in vitro immunogenicity … [%]” value in the assay on CD8+ T cells is “+ (<20% = +)”. Moreover, in the assay with HLA-A*24, the “Peptide exchange (MHC class I binding score, peptide exchange yield)” value is given as “+++ (50%-75% = +++)”. For “112 (IYNFVESKL; listed as Homo sapiens) [compound 112]”, the “in vitro immunogenicity … [%]” value in the assay on CD8+ T cells was “+++ (50%-69% = +++)”. The “Peptide exchange (MHC class I binding score, peptide exchange yield)” value in the assay with HLA-A*24 was “+++ (50%-75% = +++)”. As to “114 (QYLDGTWSL; listed as Homo sapiens) [compound 114]”, the “in vitro immunogenicity … [%]” value with CD8+ T cells is “+++ (50%-69% = +++)”. Besides, the “Peptide exchange (MHC class I binding score, peptide exchange yield)” value in the assay on HLA-A*24 was “++++ (>=75% = ++++)”. The like results for “115 (RYLNKSFVL; listed as Homo sapiens) [compound 115]” were, in that order, “+ (<20% = +)” and “+++ (50%-75% = +++)”. The like results for “119 (VYRVYVTTF; listed as Homo sapiens) [compound 119]” were, in that order, “+++ (50%-69% = +++)” and “+++ (50%-75% = +++)”. The like results for “120 (GYIEHFSLW; listed as Homo sapiens) [compound 120]” were, in that order, “++ (20%-49% = ++)” and “++++ (>=75% = ++++)”. Consider “122 (EYQARIPEF; listed as Homo sapiens) [compound 122]”, for which the “in vitro immunogenicity … [%]” value in the assay with CD8+ T cells was “++ (20%-49% = ++)”. Also, the “Peptide exchange (MHC class I binding score, peptide exchange yield)” value in the assay on HLA-A*24 is “+++ (50%-75% = +++)”. As for “132 (RYPALFPVL; listed as Homo sapiens) [compound 132]”, the “in vitro immunogenicity … [%]” value in the assay with CD8+ T cells was “+ (<20% = +)”. The “Peptide exchange (MHC class I binding score, peptide exchange yield)” value with HLA-A*24 is listed as “++++ (>=75% = ++++)”. Consider “137 (EYLHNCSYF; listed as Homo sapiens) [compound 137]”, for which, in the assay on CD8+ T cells, the “in vitro immunogenicity … [%]” value is listed as “+ (<20% = +)”. In addition, in the assay with HLA-A*24, the “Peptide exchange (MHC class I binding score, peptide exchange yield)” value is “++++ (>=75% = ++++)”. Consider “139 (IFGIFPNQF; listed as Homo sapiens) [compound 139]”, for which, in the assay with CD8+ T cells, the “in vitro immunogenicity … [%]” value is reported as “++ (20%-49% = ++)”. For the same substance, in the assay with HLA-A*24, the “Peptide exchange (MHC class I binding score, peptide exchange yield)” value is listed as “+++ (50%-75% = +++)”. The like results for “140 (RYLINSYDF; listed as Homo sapiens) [compound 140]” were, in that order, “+++ (50%-69% = +++)” and “++++ (>=75% = ++++)”. For “142 (VYVDDIYVI; listed as Homo sapiens) [compound 142]” the same measures were “++++ (>=70% = ++++)” and “+++ (50%-75% = +++)”. In the case of “337 (KVLGKIEKV; listed as Homo sapiens) [compound 337]”, in the assay with HLA-A*02:01, the “Peptide exchange (MHC class I binding score)” value is “+++ (50%-75% = +++)”.

Regarding “338 (LLYDGKLSSA; listed as Homo sapiens) [compound 338]”, the “Peptide exchange (MHC class I binding score)” value with HLA-A*02:01 was “++ (20%-49% = ++)”.

On to “339 (VLGPGPPPL; listed as Homo sapiens) [compound 339]”, for which, in the assay with HLA-A*02:01, the “Peptide exchange (MHC class I binding score)” value is “++ (20%-49% = ++)”. For the substance “340 (SVAKTILKR; listed as Homo sapiens) [compound 340]”, the “Peptide exchange (MHC class I binding score)” value with HLA-A*02:01 is reported as “++ (20%-49% = ++)”. For the substance “393 (KYIEAIQWI; listed as Homo sapiens) [compound 393]”, the “in vitro immunogenicity, wells” value in the assay on CD8+ T cells is “++ (20%-49% = ++)”.

For the substance “399 (SYIDVLPEF; listed as Homo sapiens) [compound 399]”, in the assay with CD8+ T cells, the “in vitro immunogenicity, wells” value was “++ (20%-49% = ++)”.

In the case of “400 (KYLEKYYNL; listed as Homo sapiens) [compound 400]”, in the assay on CD8+ T cells, the “in vitro immunogenicity, wells” value is “++ (20%-49% = ++)”. Turning to “407 (VYGIRLEHF; listed as Homo sapiens) [compound 407]”, in the assay with CD8+ T cells, the “in vitro immunogenicity, wells” value was “+++ (50%-69% = +++)”. For “414 (MYPYIYHVL; listed as Homo sapiens) [compound 414]”, the “in vitro immunogenicity, wells” value in the assay with CD8+ T cells is reported as “++ (20%-49% = ++)”.

(Values after patent US10130693B2, “Peptides, combination of peptides and scaffolds for use in immunotherapeutic treatment of various cancers” (Immatics Biotechnologies GmbH, priority 2015, dated 2018).)
